The results in this text go back to US8658677B2, “Pyridyl-2-methylamino compounds, compositions and uses thereof” (Aria Neurosciences Inc., priority 2011, dated 2014).

The target in one test is T1, Aβ40 (Homo sapiens, UniProt P05067).
T1 construct: host or cells: chemical solid-phase peptide synthesis (no expression host)
Kind of test: Thioflavin-T fibrillization assay. In kind it is biochemical. From the text: Synthetic Aβ 1-40 peptide (sequence: […]) was synthesized at the W.M. Keck Foundation Facility (Yale University, New Haven, Conn.) by solid-phase technique on a p-methyl-benzhydrylamine resin, using a Biosearch SAM 2 synthesizer and purified by high performance liquid chromatography (HPLC) with the use of a reverse-phase support medium (Delta-Bondapak) on a 0.78×30 cm column with a 0-66% linear gradient of acetonitrile in 0.1% (v/v) trifluroacetic acid, as previously described. The peptide content of the eluate was monitored by measurement of its absorption at 214 nm. To verify the sequence and purity of the peptide, linear, time-of-flight mass spectrometry was performed at the Skirball Institute at New York University. For aggregation studies the peptide was diluted in 1,1,1,3,3,3-hexafluoro-2-propanol (HFIP; Sigma St. Loius, Mo.) at a concentration of 10 mM/mL, aliquoted and lyophilized. HFIP treatment renders peptides monomeric with minimal β-sheet content. Lyophilized peptides were stored at −80° C. and resuspended immediately prior to each experiment in the appropriate diluent.
The effect of compounds of the present invention on aggregation of Aβ 1-40 peptide was tested using a Thioflavin-T assay according to previously published methods. Aggregation of Aβ 1-40 incubated alone was measured for comparison. Aβ 1-40 was HFIP treated (as described above) and reconstituted in 100 mM Tris buffer (pH 7.4) to obtain a 100 μmol/L concentration. Stock of investigational compounds (50 mmol/L stock diluted in DMSO) was added to Aβ 1-40 to achieve of a concentration 10 or 100 μmol/L of investigational compound in 100 μmol/L of Aβ 1-40. All incubations were performed over a period of 7 days at 37° C. and the incubation mixture was slowly mixed for 6 hours every 24 h. At the conclusion of the experiment samples containing 15 μg of Aβ 1-40 with and without investigational compounds were added to 1 mL of 50 mM glycine, pH 9.2 and 2 μM of Thioflavin-T (Sigma Chemical, Co.; St. Louis, Mo.). Fluorescence was measured at an excitation of 435 nm and an emission of 485 nm in a Perkin-Elmer LS-50B fluorescence spectrophotometer (Perkin Elmer Instruments, Shelton, Conn.). A time scan of fluorescence was performed and three values after the decay reached a plateau (280, 290, 300 seconds) were averaged. The background fluorescence of 40 μL of Tris buffer added to 2 μM/L of Thioflavin-T solution was subtracted. Samples were run in duplicate. Differences in amount of fibrils formed in the presence of investigational compounds were evaluated by means of one-way ANOVA followed by a Dunnet post-hoc test using Statistica (version 6.1, StatSoft Inc., OK).
[…] monomerized synthetic Aβ40 was incubated in 0.1M Tris pH 7.0, T=37° C. for 8 days in the presence of 0-100 μM concentration of compounds. […] An arrow indicates Aβ monomers clustered in ill developed protofibril. (C) Oligomerization assay. ARN4261 and ARN4224 reduced the amount of Aβ oligomers by 78% and 74%, respectively p<0.001. A compound 69b (GKLVFNmgA) was used as a positive control. 69b is homologous to Aβ sequence 17-21 and contains N-methyl glycine (Nmg), which renders it capable of anti-fibrillization and anti-oligomerization effect. (D) Principle of oligomerization assay. 100 μM Aβ40 was aggregated alone or with the addition of 10 μM of tested compounds [1:10 compound: Ab ratio] for 24 h in conditions promoting oligomers assembly, i.e., DMEM/F-12 medium+0.2% SDS, T=4° C. Prior to SDS-PAGE in non-reducing conditions samples were treated with glutaraldehyde. A strong smear of Aβ oligomers is seen between 37 and 70 KDa markers (arrows) in lane 2, and a dense band below the 25 KDa marker reflects Aβ monomers non-dissociated by 10% polyacrylamide gel. No oligomers above 37 KDa marker are seen in lane 1 containing only Aβ monomers run as a control. […] (E) TEM of Aβ oligomers. […] Yellow arrowhead indicates smaller oligomers.

The next test deals with Aβ plaques. Put plainly: Aβ plaque load and brain Aβ level after chronic treatment. In kind it is in vivo, mice. The protocol:
Female APPSW/PS1dE9 AD double transgenic (Tg) mice received daily intraperitoneal injections of ARN2966 (50 mg/kg) starting from the age of six months until the age of 10 months.
Following the course of ARN2966 treatment, animals were sacrificed, and the load of Thioflavin-S (Th-S) stained Aβ plaques (% of histological section area covered by plaques) was quantified in the brain cortex on serial coronal sections through the rostrocaudal axis of the right hemisphere as described by us [Sadowski 2004]. The left hemisphere was homogenized (1:10 weight/volume), and aliquots of the homogenate were used to measure the level of Aβ oligomers (Aggregated β-Amyloid ELISA Kit, [Invitrogen]) or subjected to formic acid (FA) extraction to determine total Aβ40 and Aβ42 brain levels via sandwich ELISAs discriminating C-terminal configuration of both peptides as described by us [Sadowski 2006]. […] Levels of FA extracted Aβ40 and Aβ42 were reduced by 82% (p<0.001) and 56% (p<0.001; FIG. 6C).
FIGS. 6.(A, B) ARN2966 treatment reduces load of Aβ plaques (n=10 ARN2966, n=15 Vehicle). (B) Representative photomicrograph of Th-S stained brain sections from vehicle and ARN2966 treated 10 month old, female APPSW/PS1dE9reveal a difference in the load of Aβ plaques. […] (D) Reduced Aβ40 and Aβ42 levels in FA extracted brain homogenate, which represent the total brain content of Aβ peptides in ARN2966 treated animals (ELISA). (E) Reduced soluble Aβ40 level in DEA extracted brain homogenate, of ARN2966 and Compound E treated mice (ELISA). […] Aβ concentrations in (C) (D) and (E) are given per gram of wet brain. All values are given as mean±SEM. Statistical analysis was done using two-tailed unpaired t-test, following confirmation of normal distribution of data using Shapiro-Wilk test.

The mark [1] stands for this setting: 50 mg/kg/day ip, age six to ten months, ELISA.

In general, EC50 refers to the concentration needed to bring the measured effect to its halfway point. Usually Emax stands for the maximal effect, on the per cent scale that the assay sets.

T1 sequence (P05067 672-711): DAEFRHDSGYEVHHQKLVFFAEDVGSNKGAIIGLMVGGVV

Turning to `Oc1ccccc1N=Cc1ccccn1` [ARN4261, 2-(Pyridin-2-ylmethyleneamino)-phenol], the EC50 at Aβ40 (100 μM HFIP monomerized synthetic Aβ40, 0.1M Tris pH 7.0, 37° C., 8 days, 0-100 μM compound, read-out: EC50 of fibril reduction) came out at 16 µM. In addition, the Emax at Aβ40 (pH 7, read-out: EMAX (% of maximal fibril reduction)) was 88%. At Aβ40 (transmission electron microscopy), the “TEM analysis of Aβ fibrils” value was “markedly reduced density and length of Aβ fibrils”.

For `Oc1ccccc1NCc1ccccn1` [ARN2966, 2-[(pyridine-2-ylmethyl)-amino]-phenol], the “reduction in the Aβ load (unbiased quantification, Thioflavin-S)” value in the test with Aβ plaques (50 mg/kg daily ip, age six to 10 months) is 25.8%. Further, the “reduction of load of Th-S positive plaques in the brain cortex” value in the test with Aβ plaques (50 mg/kg/day ip, age six to ten months) was 21.9%. In the test on Aβ plaques (setting [1]), the “reduction of FA extracted Aβ40 brain level” value is reported as 82%, the “reduction of FA extracted Aβ42 brain level” value came to 56% and the “reduction of level of Aβ oligomers in brain homogenate” value worked out at 20.5%. In addition, the “behaviour in anti-Aβ aggregation assays” value on Aβ40 (compared with ARN4261) is listed as “behaves comparably to ARN4261”.
